Earlier results on two compounds are cited in patent publication US6869615B2, “Pharmaceutical formulations containing a non-steroidal antiinflammatory drug and a proton pump inhibitor” (Andrx Labs LLC, priority 2000, dated 2005).

`O=C(O)Cc1ccccc1Nc1c(Cl)cccc1Cl` [diclofenac]: the “patients with side effects that require cessation of medication” value (NSAIDs such as diclofenac) is recorded as “about 20%”. With `CN1C(C(=O)Nc2ccccn2)=C(O)c2ccccc2S1(=O)=O` [piroxicam], the “patients who experience gross bleeding and ulceration” value (chronic use, Langman et al, Lancet 1994) is “up to 4%”.
